The structures appear in SMILES notation. Read-outs that look alike come from different tables or passages of the source.

For one test, the target named is T1, human FGFR4 (Homo sapiens, UniProt P22455).
T1 construct: human FGFR4 cytoplasmic domain (460-802); GST (N); purchased Carna Biosciences 08-136
The test can be described thus: FGFR4 enzymatic assay (HTRF KinEASE-TK). The class given is biochemical. As to conditions: wild-type human FGFR4 cytoplasmic domain (460-802), GST-tag; 60 min preincubation at 25° C.; ATP 200 μM; read-out: Potency (IC50), FGFR4 enzymatic assay. How it is done:
The ability of compounds to inhibit human FGFR4 tyrosine kinase activities was determined using a commercially available HTRF® KinEASE™-TK kit (CISBIO, Cat #62TK0PEC) according to the manufacturer's protocol. Wild-type human FGFR4 cytoplasmic domain (460-802) with N-terminal GST-tag was purchased from Carna Biosciences (Carna, Cat #08-136) and used in the kinase enzymatic assay. This assay, run in a 384-well plate format, is a generic method for measuring tyrosine kinase activities using one substrate and a universal detection system. It involves two steps: (1) Enzymatic step: the biotin labeled TK Substrate is incubated with the kinase and then ATP is added to start the enzymatic reaction; during this step, FGFR4 will phosphorylate the TK Substrate-biotin. (2) Detection step: The TK-Antibody labeled with Eu^3+-Cryptate can recognize the phosphorylated TK Substrate-biotin. When the streptavidin-XL665 conjugate binds the biotin, a FRET signal will be detected. Briefly, human FGFR4 (0.25 μg/ml) in the enzymatic buffer solutions (250 mM HEPES, pH7.0, 0.1% NaN3, 0.05% BSA, 0.5 mM Orthovanadate) were mixed with various concentrations of the test compound (dissolved in 100% DMSO). These solutions were incubated for 60 min at 25° C., and subsequently a mixture of substrate peptide and ATP was added with the final peptide and ATP concentrations at 0.3 μM and 200 μM respectively. The final reaction mixture of enzyme-substrate-ATP-compound was incubated for 40 min at 37° C. Meanwhile the detection mixture containing the TK-antibody and Streptavidin-XL665 diluted in the detection buffer (50 mM HEPES, pH7.0, with additives) was prepared, and added to the reaction mixture at final concentrations of 25 nM and 18.5 nM respectively. After incubation for 60 min at 25° C., the FRET signal of the final solution was measured at 665 nm and 612 nm emissions on a TECAN Spark 10M instrument (TECAN). The percent (%) inhibition at each concentration of a compound was calculated relative to the FRET signal in the Max and Min control wells contained within each assay plate. The Max control wells contained enzyme and substrate as 0% inhibition, and the Min control wells only contained substrate without enzyme as 100% inhibition. The concentrations and percent inhibition values for a test compound are plotted and the concentration of the compound required to achieve 50% inhibition (IC50) was determined with a four-parameter logistic dose response equation. Dose-response curves were generated using Prism (GraphPad Software, La Jolla, CA, US) to calculate IC50 values for each compound tested.
In general terms: Time-resolved FRET reads energy transfer from a long-lived donor to a nearby acceptor.

Another test relates to Hep3B cells. The experiment in a line: Cell-based FGFR4 proliferation assay (CellTiter-Glo). As to conditions: incubated with test compound for 3 days, CellTiter-Glo luminescence, read-out: Potency (IC50), Hep3B cell proliferation. On the procedure:
Hepatocellular carcinoma cell line Hep3B (ATCC, Cat #HB-8064) were cultured at 37° C., 5% CO2 in ATCC-formulated Eagle's Minimum Essential Medium supplemented with 10% fetal bovine serum; 1% Penicillin-Streptomycin.
Cell line: Hepatocellular carcinoma cell line Hep3B (ATCC, Cat #HB-8064).
In this assay, Hep3B cells are seeded in 384-well microplates, and after exposure to experimental compounds for […], CellTiter-Glo® Luminescent Cell Viability Assay kit (Promega, Cat #G7572) are used to determine the number of viable cells in the culture based on quantitation of the ATP present, which signals the presence of metabolically active cells. Luminescent signal is proportional to the amount of ATP present. The amount of ATP is directly proportional to the number of cells present in the culture, allowing drug-induced effects on cell proliferation to be measured.
Hep3B cells were plated at a density of 4×10^4/ml cells in a 384-well black/clear microplate with 20 μL per well of MEM Medium (Gibco Cat. #11095-080) supplemented with 10% fetal bovine serum; 1% Penicillin-Streptomycin, and cultured overnight at 37° C., 5% CO2. Various concentrations of the test compound (dissolved in 100% DMSO) were added to the wells of the cell plate. The cells were incubated with the test compound for 3 days at 37° C., 5% CO2. 5 μL of CellTiter-Glo® Reagent was added to each well of the cell plate. The cell plate was incubated for 5 min at 25° C. on a plate shaker (IKA MTS 2/4) at 300 rpm. Luminescence signals were read on a TECAN Spark 10M instrument (TECAN). […] The concentrations and percent inhibition values for a test compound were plotted and the concentration of the compound required to achieve 50% inhibition (IC50) is determined with a four-parameter logistic dose response equation. Dose-response curves were generated using Prism (GraphPad Software, La Jolla, CA, US) to calculate IC50 values for each compound tested.

T1 sequence (P22455 460-802): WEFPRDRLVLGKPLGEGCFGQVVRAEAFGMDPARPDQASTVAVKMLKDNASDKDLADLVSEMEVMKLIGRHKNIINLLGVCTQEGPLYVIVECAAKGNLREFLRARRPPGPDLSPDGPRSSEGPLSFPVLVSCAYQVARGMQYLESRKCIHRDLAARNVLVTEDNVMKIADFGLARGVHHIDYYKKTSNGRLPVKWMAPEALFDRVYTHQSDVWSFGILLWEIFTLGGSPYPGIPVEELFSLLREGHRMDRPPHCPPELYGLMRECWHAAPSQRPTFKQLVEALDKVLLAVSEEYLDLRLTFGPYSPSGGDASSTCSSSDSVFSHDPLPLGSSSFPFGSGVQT

As for `C=CC(=O)Nc1ncn(C)c1-c1n[nH]c2c1CCC(c1c(F)c(OC)cc(OC)c1F)C2` (single isomer, unassigned) [Compound S3-P1, N-(5-(6-(2,6-Difluoro-3,5-dimethoxyphenyl)-4,5,6,7-tetrahydro-1H-indazol-3-yl)-1-methyl-1H-imidazol-4-yl) Acrylamide], the IC50 was more than 100 nM on human FGFR4 and more than 100 nM in the test with Hep3B cells (Homo sapiens, Hep3B, 72 h). For `C=CC(=O)Nc1cnn(C)c1-c1n[nH]c2c1COC(c1c(F)c(OC)cc(OC)c1F)C2` (single isomer, unassigned) [Compound S6-P1, N-(5-(6-(2,6-difluoro-3,5-dimethoxyphenyl)-1,4,6,7-tetrahydropyrano[4,3-c]pyrazol-3-yl)-1-methyl-1H-pyrazol-4-yl) acrylamide], the IC50 is more than 100 nM on human FGFR4 and more than 100 nM in the test with Hep3B cells (Homo sapiens, Hep3B, 72 h). On to `C=CC(=O)Nc1c[nH]nc1-c1n[nH]c2c1CCC(c1c(F)c(OC)cc(OC)c1F)C2` (single isomer, unassigned) [Compound S15-P2, N-(3-(6-(2,6-difluoro-3,5-dimethoxyphenyl)-4,5,6,7-tetrahydro-1H-indazol-3-yl)-1H-pyrazol-4-yl)acrylamide], for which the IC50 at human FGFR4 and with Hep3B cells was less than 10 nM each time. On to `[2H]C([2H])([2H])n1ncc(NC(=O)C=C)c1-c1n[nH]c2c1CCC(c1c(F)c(OC)cc(OC)c1F)C2` (single isomer, unassigned) [Compound S16-P2, N-(5-(6-(2,6-difluoro-3,5-dimethoxyphenyl)-4,5,6,7-tetrahydro-1H-indazol-3-yl)-1-(methyl-d3)-1H-pyrazol-4-yl)acrylamide], for which the IC50 on human FGFR4 was less than 10 nM; in the test with Hep3B cells, 10 to 100 nM.

As to `COc1cc(OC)c(F)c([C@H]2CCc3c(-c4c(NC(=O)C5CO5)cnn4C)n[nH]c3C2)c1F` (stereo partly drawn) [Compound S24, N-(5-((S)-6-(2,6-difluoro-3,5-dimethoxyphenyl)-4,5,6,7-tetrahydro-1H-indazol-3-yl)-1-methyl-1H-pyrazol-4-yl)oxirane-2-carboxamide], the IC50 at human FGFR4 is more than 100 nM. Regarding `C=CC(=O)Nc1cn(CCN(C)C)nc1-c1n[nH]c2c1CCC[C@H](c1c(F)c(OC)cc(OC)c1F)C2` [Compound S31, (S)—N-(3-(7-(2,6-difluoro-3,5-dimethoxyphenyl)-1,4,5,6,7,8-hexahydrocyclohepta[c]pyrazol-3-yl)-1-(2-(dimethylamino)ethyl)-1H-pyrazol-4-yl)acrylamide], the IC50 is less than 10 nM on human FGFR4 and 10 to 100 nM with Hep3B cells (Homo sapiens, Hep3B, 72 h). Turning to `C=CC(=O)Nc1cn(CCN(C)C)nc1-c1n[nH]c2c1CCC[C@@H](c1c(F)c(OC)cc(OC)c1F)C2` [Compound S32, (R)—N-(3-(7-(2,6-difluoro-3,5-dimethoxyphenyl)-1,4,5,6,7,8-hexahydrocyclohepta[c]pyrazol-3-yl)-1-(2-(dimethylamino)ethyl)-1H-pyrazol-4-yl)acrylamide], the IC50 is less than 10 nM on human FGFR4 and less than 10 nM in the test on Hep3B cells (Homo sapiens, Hep3B, 72 h).

(Values after patent publication US11976058B2, “Aromatic derivatives, preparation methods, and medical uses thereof” (Bioardis LLC, priority 2019, dated 2024).)
